In ChEMBL document CHEMBL1781926, “Synthesis of 1-naphtylpiperazine derivatives as serotoninergic ligands and their evaluation as antiproliferative agents” (Eur J Med Chem, 2011):
Calls of active or inactive are those of the source. The calls are words filed in the database; no cut-off is given here.

Experiments:
[1] = target: T1, Adrenergic receptor alpha-2 (Rattus norvegicus, UniProt P22086+P19328+P22909); experiment: Displacement [3H]yohimbine from alpha 2 adrenergic receptor in rat brain cortex homogenates after 30 mins by liquid scintillation counting; format: tissue-based
T1 sequence (P22086 whole entry): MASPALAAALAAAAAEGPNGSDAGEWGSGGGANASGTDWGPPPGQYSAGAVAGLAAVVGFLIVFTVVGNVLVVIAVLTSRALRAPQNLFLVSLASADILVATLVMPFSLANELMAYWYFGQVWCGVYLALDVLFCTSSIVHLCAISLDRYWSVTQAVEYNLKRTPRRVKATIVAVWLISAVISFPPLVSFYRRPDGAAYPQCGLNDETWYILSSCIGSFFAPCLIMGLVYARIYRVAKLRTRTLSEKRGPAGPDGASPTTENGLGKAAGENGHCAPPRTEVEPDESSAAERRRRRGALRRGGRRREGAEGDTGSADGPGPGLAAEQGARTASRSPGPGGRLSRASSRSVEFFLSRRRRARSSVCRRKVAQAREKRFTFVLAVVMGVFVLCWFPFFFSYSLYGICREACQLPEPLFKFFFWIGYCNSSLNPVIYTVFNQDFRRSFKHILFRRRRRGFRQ
T1 sequence (P19328 whole entry): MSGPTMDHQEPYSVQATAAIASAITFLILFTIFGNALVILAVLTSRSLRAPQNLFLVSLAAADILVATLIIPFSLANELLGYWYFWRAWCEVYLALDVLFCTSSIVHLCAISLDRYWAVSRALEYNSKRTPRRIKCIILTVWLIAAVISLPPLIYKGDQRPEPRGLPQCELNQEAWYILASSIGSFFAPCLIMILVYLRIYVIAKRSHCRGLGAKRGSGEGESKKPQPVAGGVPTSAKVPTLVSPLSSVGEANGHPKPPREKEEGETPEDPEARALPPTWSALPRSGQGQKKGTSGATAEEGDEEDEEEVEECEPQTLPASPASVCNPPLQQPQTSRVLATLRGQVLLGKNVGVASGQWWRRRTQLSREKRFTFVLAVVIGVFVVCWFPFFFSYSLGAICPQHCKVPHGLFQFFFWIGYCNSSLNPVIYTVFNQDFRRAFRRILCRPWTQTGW
T1 sequence (P22909 whole entry): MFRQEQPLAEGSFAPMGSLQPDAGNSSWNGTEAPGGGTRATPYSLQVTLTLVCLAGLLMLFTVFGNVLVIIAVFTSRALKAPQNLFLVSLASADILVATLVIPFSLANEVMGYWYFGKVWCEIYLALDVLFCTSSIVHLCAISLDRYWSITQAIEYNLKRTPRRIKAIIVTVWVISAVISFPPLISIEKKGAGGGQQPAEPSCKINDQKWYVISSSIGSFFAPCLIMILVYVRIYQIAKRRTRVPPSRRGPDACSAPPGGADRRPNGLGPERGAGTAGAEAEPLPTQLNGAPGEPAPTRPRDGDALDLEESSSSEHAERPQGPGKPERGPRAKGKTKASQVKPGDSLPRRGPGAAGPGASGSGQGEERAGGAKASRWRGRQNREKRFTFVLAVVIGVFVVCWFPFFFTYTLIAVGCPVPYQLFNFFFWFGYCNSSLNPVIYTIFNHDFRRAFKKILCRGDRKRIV

[2] = target: T2, Adrenergic receptor alpha-1 (Rattus norvegicus, UniProt P15823+P23944+P43140); experiment: Displacement [3H]prazosin from alpha1 adrenergic receptor in rat brain cortex homogenates after 30 mins by liquid scintillation counting; format: tissue-based
T2 sequence (P15823 whole entry): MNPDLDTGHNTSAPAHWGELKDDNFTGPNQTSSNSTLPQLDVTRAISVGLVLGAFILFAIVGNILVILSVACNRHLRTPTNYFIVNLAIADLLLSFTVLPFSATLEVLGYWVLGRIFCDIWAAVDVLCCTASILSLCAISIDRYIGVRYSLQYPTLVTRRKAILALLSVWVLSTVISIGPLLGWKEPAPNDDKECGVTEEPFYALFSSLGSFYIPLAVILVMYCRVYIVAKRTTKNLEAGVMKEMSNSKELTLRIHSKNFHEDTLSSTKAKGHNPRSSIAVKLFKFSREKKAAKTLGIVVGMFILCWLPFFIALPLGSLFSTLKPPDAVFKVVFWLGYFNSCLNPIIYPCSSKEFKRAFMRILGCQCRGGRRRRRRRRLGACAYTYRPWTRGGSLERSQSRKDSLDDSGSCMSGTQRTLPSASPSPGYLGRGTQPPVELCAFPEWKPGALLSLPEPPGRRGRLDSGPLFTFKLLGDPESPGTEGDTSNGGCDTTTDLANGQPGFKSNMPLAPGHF
T2 sequence (P23944 whole entry): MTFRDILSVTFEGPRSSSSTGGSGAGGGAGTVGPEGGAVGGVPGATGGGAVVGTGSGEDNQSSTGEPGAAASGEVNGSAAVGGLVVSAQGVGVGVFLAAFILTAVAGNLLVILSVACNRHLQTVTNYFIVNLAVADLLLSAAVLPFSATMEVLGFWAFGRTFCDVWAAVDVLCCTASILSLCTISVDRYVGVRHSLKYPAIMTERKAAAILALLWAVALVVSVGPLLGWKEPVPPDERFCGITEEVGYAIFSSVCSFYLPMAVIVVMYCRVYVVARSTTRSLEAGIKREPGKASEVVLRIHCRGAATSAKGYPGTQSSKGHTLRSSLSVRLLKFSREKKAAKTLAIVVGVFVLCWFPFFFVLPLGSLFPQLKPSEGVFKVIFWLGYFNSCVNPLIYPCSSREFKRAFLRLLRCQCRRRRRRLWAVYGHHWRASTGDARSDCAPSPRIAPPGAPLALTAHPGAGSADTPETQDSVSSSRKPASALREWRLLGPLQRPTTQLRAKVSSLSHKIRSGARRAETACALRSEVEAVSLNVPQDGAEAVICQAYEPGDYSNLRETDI
T2 sequence (P43140 whole entry): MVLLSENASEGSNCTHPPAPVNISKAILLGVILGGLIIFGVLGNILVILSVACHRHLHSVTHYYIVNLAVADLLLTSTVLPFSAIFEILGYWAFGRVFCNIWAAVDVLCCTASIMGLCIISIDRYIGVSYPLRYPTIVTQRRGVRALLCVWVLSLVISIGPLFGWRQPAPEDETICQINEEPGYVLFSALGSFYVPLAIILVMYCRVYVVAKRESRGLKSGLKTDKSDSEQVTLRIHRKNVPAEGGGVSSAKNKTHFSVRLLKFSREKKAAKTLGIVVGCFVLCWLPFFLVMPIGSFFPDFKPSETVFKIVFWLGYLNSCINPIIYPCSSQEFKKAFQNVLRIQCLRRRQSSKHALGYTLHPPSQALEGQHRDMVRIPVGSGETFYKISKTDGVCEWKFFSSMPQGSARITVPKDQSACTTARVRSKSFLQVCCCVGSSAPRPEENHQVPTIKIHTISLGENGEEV

[3] = target: T3, 5-hydroxytryptamine receptor 2C (Rattus norvegicus, UniProt P08909); experiment: Displacement of [3H]mesulergine from 5HT2C receptor in Sprague-Dawley rat frontal cortical homogenates after 15 mins
T3 sequence (P08909 whole entry): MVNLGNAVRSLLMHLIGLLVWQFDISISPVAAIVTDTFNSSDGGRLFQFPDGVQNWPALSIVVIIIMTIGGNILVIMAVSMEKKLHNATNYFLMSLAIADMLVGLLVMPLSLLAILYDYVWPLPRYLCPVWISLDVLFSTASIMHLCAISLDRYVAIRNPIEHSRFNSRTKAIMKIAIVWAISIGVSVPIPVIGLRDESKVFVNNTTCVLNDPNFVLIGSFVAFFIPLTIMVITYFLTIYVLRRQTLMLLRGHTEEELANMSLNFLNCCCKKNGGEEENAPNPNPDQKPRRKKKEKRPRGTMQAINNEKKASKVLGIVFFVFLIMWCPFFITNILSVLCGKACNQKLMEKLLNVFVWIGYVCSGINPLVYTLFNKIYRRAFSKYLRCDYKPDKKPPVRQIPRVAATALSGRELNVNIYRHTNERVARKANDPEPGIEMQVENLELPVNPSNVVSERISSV

PC-3 [4] = experiment: Antiproliferative activity against human PC3 cells assessed as growth inhibition after 96 hrs by SRB assay; format: functional, cell-based
PC-3 [5] = experiment: Cell cycle arrest in human PC3 cells assessed as accumulation at G1 phase at 15 uM after 72 hrs using propidium iodide staining by flow cytometry (reference value: 42.19 %); format: functional
PC-3 [6] = experiment: Cell cycle arrest in human PC3 cells assessed as accumulation at G2 phase at 15 uM after 72 hrs using propidium iodide staining by flow cytometry (reference value: 20.18 %); format: functional
PC-3 [7] = experiment: Cell cycle arrest in human PC3 cells assessed as accumulation at S phase at 15 uM after 72 hrs using propidium iodide staining by flow cytometry (reference value: 37.73 %); format: functional
PC-3 [8] = experiment: Induction of apoptosis in human PC3 cells at 15 uM after 72 hrs using propidium iodide staining by flow cytometry (reference value: 1.79 %); format: functional
PC-3 [9] = experiment: Cell cycle arrest in human PC3 cells assessed as accumulation at G1 phase at 15 uM after 24 hrs using propidium iodide staining by flow cytometry (reference value: 46.97 %); format: functional
PC-3 [10] = experiment: Cell cycle arrest in human PC3 cells assessed as accumulation at G2 phase at 15 uM after 24 hrs using propidium iodide staining by flow cytometry (reference value: 18.19 %); format: functional
PC-3 [11] = experiment: Cell cycle arrest in human PC3 cells assessed as accumulation at S phase at 15 uM after 24 hrs using propidium iodide staining by flow cytometry (reference value: 34.84 %); format: functional
PC-3 [12] = experiment: Induction of apoptosis in human PC3 cells at 15 uM after 24 hrs using propidium iodide staining by flow cytometry (reference value: 1.27 %); format: functional
PC-3 [13] = experiment: Cell cycle arrest in human PC3 cells assessed as accumulation at G1 phase at 15 uM after 48 hrs using propidium iodide staining by flow cytometry (reference value: 54.14 %); format: functional
PC-3 [14] = experiment: Cell cycle arrest in human PC3 cells assessed as accumulation at G2 phase at 15 uM after 48 hrs using propidium iodide staining by flow cytometry (reference value: 13.36 %); format: functional
PC-3 [15] = experiment: Cell cycle arrest in human PC3 cells assessed as accumulation at S phase at 15 uM after 48 hrs using propidium iodide staining by flow cytometry (reference value: 38.16 %); format: functional
PC-3 [16] = experiment: Induction of apoptosis in human PC3 cells at 15 uM after 48 hrs using propidium iodide staining by flow cytometry (reference value: 0.84 %); format: functional
D(1A) dopamine receptor = D(1A) dopamine receptor (Rattus norvegicus, UniProt P18901); experiment: Displacement of [3H]SCH 23390 from dopamine D1 receptor in rat corpora striatum homogenates after 15 mins by liquid scintillation counting
D(2) dopamine receptor = D(2) dopamine receptor (Rattus norvegicus, UniProt P61169); experiment: Displacement of [3H]spiperone from dopamine D2 receptor in rat corpora striatum homogenates after 15 mins by liquid scintillation counting
[17] = target: T4, 5-hydroxytryptamine receptor 1A (Rattus norvegicus, UniProt P19327); experiment: Displacement of [3H]8-OH-DPAT from 5HT1A receptor in Sprague-Dawley rat brain cortex homogenates after 30 mins by liquid scintillation counting; format: tissue-based
T4 sequence (P19327 whole entry): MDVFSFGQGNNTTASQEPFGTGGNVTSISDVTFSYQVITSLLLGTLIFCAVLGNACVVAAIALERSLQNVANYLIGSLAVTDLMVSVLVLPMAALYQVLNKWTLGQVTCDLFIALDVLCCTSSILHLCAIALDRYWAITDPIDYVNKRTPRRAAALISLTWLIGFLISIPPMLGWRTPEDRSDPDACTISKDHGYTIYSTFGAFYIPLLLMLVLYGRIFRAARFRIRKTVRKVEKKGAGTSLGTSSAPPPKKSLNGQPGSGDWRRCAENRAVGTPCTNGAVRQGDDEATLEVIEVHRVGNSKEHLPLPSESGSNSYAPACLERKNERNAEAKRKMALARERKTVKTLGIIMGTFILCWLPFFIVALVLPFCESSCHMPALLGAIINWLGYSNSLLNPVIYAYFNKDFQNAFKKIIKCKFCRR

[18] = target: 5-hydroxytryptamine receptor 2A (Rattus norvegicus, UniProt P14842); experiment: Displacement of [3H]Ketanserin from 5HT2A receptor in Sprague-Dawley rat frontal cortical homogenates after 15 mins
PC-3 [19] = experiment: Inhibition of serotonin-induced MAPK phosphorylation in human PC3 cells at 15 uM after 48 hrs by Western blotting; format: cell-based
[20] = target: RAC-alpha serine/threonine-protein kinase (Homo sapiens) (UniProt P31749); experiment: Inhibition of serotonin-induced AKT phosphorylation in human PC3 cells at 15 uM after 48 hrs by Western blotting; format: cell-based; details: PC-3
RAC-alpha serine/threonine-protein kinase (Homo sapiens), sequence (P31749 whole entry): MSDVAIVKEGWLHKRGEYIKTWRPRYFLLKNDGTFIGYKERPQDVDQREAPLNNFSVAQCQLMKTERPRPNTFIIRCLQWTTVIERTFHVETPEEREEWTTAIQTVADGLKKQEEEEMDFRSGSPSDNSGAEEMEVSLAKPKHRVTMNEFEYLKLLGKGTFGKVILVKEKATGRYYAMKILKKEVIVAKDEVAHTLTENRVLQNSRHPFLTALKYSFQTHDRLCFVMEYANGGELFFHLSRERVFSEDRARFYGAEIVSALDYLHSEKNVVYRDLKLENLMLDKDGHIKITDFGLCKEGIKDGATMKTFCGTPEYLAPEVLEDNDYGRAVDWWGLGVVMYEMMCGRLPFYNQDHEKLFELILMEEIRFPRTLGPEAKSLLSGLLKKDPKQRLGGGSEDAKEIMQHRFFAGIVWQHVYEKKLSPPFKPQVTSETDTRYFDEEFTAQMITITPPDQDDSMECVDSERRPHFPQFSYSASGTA

D(1A) dopamine receptor, sequence (P18901 whole entry): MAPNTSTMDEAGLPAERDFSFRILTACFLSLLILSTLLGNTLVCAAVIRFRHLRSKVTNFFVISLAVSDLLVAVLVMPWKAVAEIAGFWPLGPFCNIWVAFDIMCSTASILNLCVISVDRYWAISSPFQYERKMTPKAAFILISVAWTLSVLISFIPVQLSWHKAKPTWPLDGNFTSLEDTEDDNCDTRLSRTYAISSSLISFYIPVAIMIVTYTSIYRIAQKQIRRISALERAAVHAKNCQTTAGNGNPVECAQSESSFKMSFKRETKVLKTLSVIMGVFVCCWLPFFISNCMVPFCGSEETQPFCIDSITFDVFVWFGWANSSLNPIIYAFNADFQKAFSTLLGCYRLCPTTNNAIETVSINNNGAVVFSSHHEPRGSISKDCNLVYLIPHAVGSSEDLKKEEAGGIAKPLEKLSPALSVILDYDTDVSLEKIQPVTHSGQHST
5-hydroxytryptamine receptor 2A, sequence (P14842 whole entry): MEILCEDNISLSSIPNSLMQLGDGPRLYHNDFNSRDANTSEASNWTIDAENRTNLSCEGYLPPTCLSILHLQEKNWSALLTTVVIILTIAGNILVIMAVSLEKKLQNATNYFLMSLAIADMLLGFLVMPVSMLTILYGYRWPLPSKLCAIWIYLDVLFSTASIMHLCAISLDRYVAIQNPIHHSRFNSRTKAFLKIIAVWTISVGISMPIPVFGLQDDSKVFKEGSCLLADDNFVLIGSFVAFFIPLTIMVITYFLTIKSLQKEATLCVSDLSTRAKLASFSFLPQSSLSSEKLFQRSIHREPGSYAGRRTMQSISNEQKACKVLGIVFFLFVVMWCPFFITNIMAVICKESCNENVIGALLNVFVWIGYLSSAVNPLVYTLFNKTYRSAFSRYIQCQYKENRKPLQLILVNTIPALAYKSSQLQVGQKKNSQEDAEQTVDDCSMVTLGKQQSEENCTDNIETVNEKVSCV
D(2) dopamine receptor, sequence (P61169 whole entry): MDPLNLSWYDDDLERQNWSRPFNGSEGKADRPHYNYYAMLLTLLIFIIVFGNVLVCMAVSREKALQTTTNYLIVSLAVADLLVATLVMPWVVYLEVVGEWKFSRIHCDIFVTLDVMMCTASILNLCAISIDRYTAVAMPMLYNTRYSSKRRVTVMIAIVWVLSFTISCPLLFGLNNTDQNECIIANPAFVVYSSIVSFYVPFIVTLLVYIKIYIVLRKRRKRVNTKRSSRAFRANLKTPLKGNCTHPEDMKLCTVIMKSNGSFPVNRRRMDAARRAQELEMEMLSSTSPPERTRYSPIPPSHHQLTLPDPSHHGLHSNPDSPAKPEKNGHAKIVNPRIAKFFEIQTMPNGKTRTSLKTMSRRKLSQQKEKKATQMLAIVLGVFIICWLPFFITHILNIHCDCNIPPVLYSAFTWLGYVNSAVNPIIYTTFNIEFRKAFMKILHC

Row | Structure (SMILES) | growth inhibition (GI) (PC-3 [4]) | Activity (PC-3 [5]) [%] | Activity (PC-3 [6]) [%] | Activity (PC-3 [7]) [%] | Activity (PC-3 [8]) [%] | Activity (PC-3 [9]) [%] | Activity (PC-3 [10]) [%] | Activity (PC-3 [11]) [%] | Activity (PC-3 [12]) [%] | Activity (PC-3 [13]) [%] | Activity (PC-3 [14]) [%] | Activity (PC-3 [15]) [%] | Activity (PC-3 [16]) [%] | further results
1 | N#C/N=C(\NCCCN1CCN(c2cccc3ccccc23)CC1)c1ccncc1 | inactive | – | – | – | – | – | – | – | – | – | – | – | – | Ki [1]: 878 nM; Ki [2]: > 10000 nM; Ki [3]: Not Active
2 | Br.COc1ccccc1N1CCN(CCCCN2C(=O)c3ccccc3C2=O)CC1 | inactive | 45.73 | 11.26 | 43.02 | 3.05 | 37.1 | 24.74 | 38.16 | 2.42 | 49.53 | 14.88 | 35.59 | 1.77 | –
3 | N#CNC(=NCCCN1CCN(c2cccc3ccccc23)CC1)c1ccncc1 | – | – | – | – | – | – | – | – | – | – | – | – | – | Ki (D(1A) dopamine receptor): > 10000 nM; Ki (D(2) dopamine receptor): 1600 nM; Ki [17]: > 10000 nM; Ki [18]: 172 nM
4 | Br.CCCN(CCC)[C@H]1CCc2cccc(O)c2C1 | inactive | 50.34 | 13.17 | 36.5 | 2.65 | 40.62 | 24.42 | 34.96 | 0.73 | 47.78 | 14.92 | 37.31 | 2.2 | inhibition (PC-3 [19]): inactive; inhibition [20]: Active
